The values below come from ChEMBL document CHEMBL1147288, “Isolation of flavonoids and a chalcone from Helichrysum odoratissimum and synthesis of helichrysetin” (1989).

Values after ≈ are worked out from the molar mass of the structure shown.

In assay [1] the test system is Escherichia coli. Description: Antibacterial activity against Escherichia coli ATCC 25922 after 24 to 48 hrs at 37 degC by liquid dilution method. It is filed as functional.
Assay [2] concerns Ralstonia solanacearum. The assay can be described thus: Antibacterial activity against Pseudomonas solanacearum after 24 to 48 hrs at 37 degC by liquid dilution method. In kind it is functional.
Assay [3] concerns Mycolicibacterium smegmatis. Description: Antibacterial activity against Mycobacterium smegmatis ATCC 607 after 24 to 48 hrs at 37 degC by liquid dilution method. In kind it is functional.
Assay [4] relates to Streptococcus pyogenes. The assay can be described thus: Antibacterial activity against Streptococcus pyogenes ATCC 19651 after 24 to 48 hrs at 37 degC by liquid dilution method. It is filed as functional.
For assay [5], the system named is Serratia marcescens. The assay can be described thus: Antibacterial activity against Serratia marcescens ATCC 8100 after 24 to 48 hrs at 37 degC by liquid dilution method. It is filed as functional.
The subject of assay [6] is Aspergillus flavus. Description: Antifungal activity against Aspergillus flavus after 7 days at 27 degC by liquid dilution method. In kind it is functional.
Assay [7] deals with Shigella dysenteriae. Description: Antibacterial activity against Shigella dysenteriae after 24 to 48 hrs at 37 degC by liquid dilution method. In kind it is functional.
The subject of assay [8] is Candida albicans. Description: Antifungal activity against Candida albicans CBS 562 after 24 to 48 hrs at 37 degC by liquid dilution method. It is filed as functional.
Assay [9] concerns Salmonella typhimurium. Description: Antibacterial activity against Salmonella Typhimurium ATCC 14028 after 24 to 48 hrs at 37 degC by liquid dilution method. The settings on record: Salmonella enterica. It is filed as functional, Salmonella enterica subsp. enterica serovar Typhimurium.
Assay [10] deals with Paecilomyces. The assay can be described thus: Antifungal activity against Paecilomyces after 7 days at 27 degC by liquid dilution method. It is filed as functional.
Assay [11] relates to Microsporum canis. The assay can be described thus: Antifungal activity against Microsporum canis after 7 days at 27 degC by liquid dilution method. It is filed as functional.
In assay [12] the test system is Pseudomonas aeruginosa. Description: Antibacterial activity against Pseudomonas aeruginosa ATCC 27853 after 24 to 48 hrs at 37 degC by liquid dilution method. In kind it is functional.
The test system of assay [13] is Staphylococcus aureus. Description: Antibacterial activity against Staphylococcus aureus […] after 24 to 48 hrs at 37 degC by liquid dilution method. It is filed as functional.
Assay [14] relates to Proteus vulgaris. The assay can be described thus: Antibacterial activity against Proteus vulgaris […] after 24 to 48 hrs at 37 degC by liquid dilution method. It is filed as functional.
Assay [15] has as its system Bacillus subtilis. The assay can be described thus: Antibacterial activity against Bacillus subtilis ATCC 6633 after 24 to 48 hrs at 37 degC by liquid dilution method. It is filed as functional.
Assay [16] relates to Epidermophyton floccosum. Description: Antifungal activity against Epidermophyton floccosum after 7 days at 27 degC by liquid dilution method. It is filed as functional.
For assay [17], the system named is Enterobacter cloacae. Description: Antibacterial activity against Enterobacter cloacae ATCC 23355 after 24 to 48 hrs at 37 degC by liquid dilution method. In kind it is functional.
For assay [18], the system named is Klebsiella pneumoniae. The assay can be described thus: Antibacterial activity against Klebsiella pneumoniae ATCC 13883 after 24 to 48 hrs at 37 degC by liquid dilution method. It is filed as functional.

By MIC is commonly meant the lowest concentration found to suppress growth. Read a high MIC as a less susceptible organism. In the case of `COc1c(-c2ccc(O)c(O)c2)oc2cc(O)cc(O)c2c1=O` [3-O-METHYLQUERCETIN], the minimal inhibitory concentration (MIC) in assay [1], in assay [2], in assay [3], in assay [4], in [5] and in [6] (168 h) was 100 µg/mL (≈ 316 µM) throughout. For the same compound, the MIC in assay [7] came out at 100 µg/mL (≈ 316 µM); in assay [8], 12.5 µg/mL (≈ 39.5 µM); in assay [9], 50 µg/mL (≈ 158 µM); in assay [10] (168 h), 100 µg/mL (≈ 316 µM); in assay [11] (168 h), 100 µg/mL (≈ 316 µM); in assay [12], 100 µg/mL (≈ 316 µM). Also, the MIC stood at 6.25 µg/mL (≈ 19.8 µM) in [13]; 100 µg/mL (≈ 316 µM) in assay [14]; 50 µg/mL (≈ 158 µM) in assay [15]; 100 µg/mL (≈ 316 µM) in assay [16] (168 h); 100 µg/mL (≈ 316 µM) in assay [17]; 100 µg/mL (≈ 316 µM) in [18].

`CN(C)[C@@H]1C(O)=C(C(N)=O)C(=O)[C@@]2(O)C(O)=C3C(=O)c4c(O)cccc4[C@@](C)(O)[C@H]3C[C@@H]12.Cl` [TETRACYCLINE HYDROCHLORIDE]: the MIC in [1] came out at 6.25 µg/mL; in assay [2] it was 100 µg/mL; in assay [3] it was 100 µg/mL; in assay [4] it was 6.25 µg/mL; in assay [5], 25 µg/mL; in assay [7], 0.78 µg/mL. Moreover, the MIC in assay [9] worked out at 12.5 µg/mL; in [12] it was 100 µg/mL; in assay [13], 100 µg/mL; in [14] it was 25 µg/mL; in assay [15], 3.12 µg/mL; in assay [17] it was 12.5 µg/mL. The lowest concentration to inhibit growth in assay [18] (MIC) was 12.5 µg/mL.

As to NYSTATIN, the minimum inhibitory concentration (MIC) stood at 12.5 µg/mL in assay [6]; 0.78 µg/mL in assay [8]; 50 µg/mL in [10]; 50 µg/mL in [11]; 100 µg/mL in assay [16].
